Data on one substance can be found in article PMC2989642 (The European journal of neuroscience, 2010).

For experiment [1], the target named is α3β4 receptors (in the α5β2 KO) (Mus musculus, UniProt Q8R493+Q8R4G9). Nature of the experiment: cell-based.
Experiment [2] deals with α3β2 receptors (in the α5β4 KO) (Mus musculus, UniProt Q8R4G9+Q9ERK7). Nature of the experiment: cell-based. It is filed as cell-based.
Chain of α3β2 receptors (in the α5β4 KO) (Q8R4G9 26-499): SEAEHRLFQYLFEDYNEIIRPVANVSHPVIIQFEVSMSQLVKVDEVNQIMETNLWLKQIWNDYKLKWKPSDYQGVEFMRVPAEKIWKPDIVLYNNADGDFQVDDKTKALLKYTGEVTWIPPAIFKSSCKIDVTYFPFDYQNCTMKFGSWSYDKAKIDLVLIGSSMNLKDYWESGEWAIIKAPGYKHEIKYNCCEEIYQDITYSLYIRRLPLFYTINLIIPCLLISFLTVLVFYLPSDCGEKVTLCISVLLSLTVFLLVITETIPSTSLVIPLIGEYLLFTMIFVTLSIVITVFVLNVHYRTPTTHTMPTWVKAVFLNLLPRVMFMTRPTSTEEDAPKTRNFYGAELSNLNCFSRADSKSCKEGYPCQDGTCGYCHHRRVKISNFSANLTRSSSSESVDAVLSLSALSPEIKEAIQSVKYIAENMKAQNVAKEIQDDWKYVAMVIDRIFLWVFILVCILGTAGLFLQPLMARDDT
Chain of α3β2 receptors (in the α5β4 KO) (Q9ERK7 26-501): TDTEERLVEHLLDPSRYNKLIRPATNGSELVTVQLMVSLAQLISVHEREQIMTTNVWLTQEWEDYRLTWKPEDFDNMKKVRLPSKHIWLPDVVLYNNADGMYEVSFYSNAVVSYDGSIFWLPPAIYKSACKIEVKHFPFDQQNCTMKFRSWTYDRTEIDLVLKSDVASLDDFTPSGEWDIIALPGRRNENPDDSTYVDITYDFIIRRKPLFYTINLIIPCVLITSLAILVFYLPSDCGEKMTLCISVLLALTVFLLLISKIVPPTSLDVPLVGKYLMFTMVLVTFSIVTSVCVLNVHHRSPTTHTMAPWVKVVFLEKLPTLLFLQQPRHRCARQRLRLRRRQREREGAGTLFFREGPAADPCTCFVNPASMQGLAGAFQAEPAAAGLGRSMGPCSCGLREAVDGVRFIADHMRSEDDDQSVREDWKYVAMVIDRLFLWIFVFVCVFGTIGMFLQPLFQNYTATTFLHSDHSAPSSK

Chain of α3β4 receptors (in the α5β2 KO) (Q8R4G9 26-499): as the sequence (Q8R4G9 26-499) above
Chain of α3β4 receptors (in the α5β2 KO) (Q8R493 21-495): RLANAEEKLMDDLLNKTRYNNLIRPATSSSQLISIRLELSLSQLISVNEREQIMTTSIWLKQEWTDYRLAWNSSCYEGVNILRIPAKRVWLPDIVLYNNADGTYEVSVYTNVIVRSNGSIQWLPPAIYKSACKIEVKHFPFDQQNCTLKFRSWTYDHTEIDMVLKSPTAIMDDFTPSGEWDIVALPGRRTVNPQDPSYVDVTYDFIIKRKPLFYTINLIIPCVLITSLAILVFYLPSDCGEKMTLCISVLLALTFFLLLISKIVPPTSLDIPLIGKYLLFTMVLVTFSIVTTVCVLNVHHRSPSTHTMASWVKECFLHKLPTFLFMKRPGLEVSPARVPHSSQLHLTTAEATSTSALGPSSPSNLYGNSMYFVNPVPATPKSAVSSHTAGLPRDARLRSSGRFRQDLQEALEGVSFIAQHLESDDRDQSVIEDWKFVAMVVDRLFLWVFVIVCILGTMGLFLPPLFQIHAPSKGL

For the substance α-conotoxin AuIB, the “recovery of the inhibition” value in experiment [1] was “Fast and full recovery”. Further, the “effect on currents induced by 300 μM ACh” value in experiment [2] is recorded as “did not affect”.
